Assays:
female rats = test: rhRLX for 5 days in female rats with infusion of ETB receptor antagonist RES-701-1 or its vehicle; format: in vivo, rat
Description: After surgical recovery, an osmotic minipump (model 2ML1, Alza Co., Palo Alto Calif.) containing either recombinant human relaxin (rhRLX; n=9 rats) or vehicle (n=8) was implanted subcutaneously on the back using light ether anesthesia. The infusion rate of rhRLX was 4 μg/hour. Experiments were conducted on day 5 of rhRLX or vehicle administration. MAP and renal function were measured as described above.
The technique of urine collection was again reliable. After reaching steady-state, the excretion rates of IN and PAH at baseline were 99±3 and 100±2% of their respective infusions for the rats administered rhRLX, and 100±2 and 99±2% for those given vehicle. Following the determination of baseline MAP and renal function, an infusion of RES-701-1, a selective endothelin type B (ETB) receptor antagonist (Conrad et al. (1999) Am. J. Physiol. 272:F767-F776; and Tanaka et al. (1994) Mol. Pharmacol. 45:724-730), was started at a rate of 10 μg/minute (flow rate 12 μl/minute) through the venous catheter. […] At the end of the experiment, 1.0 ml of blood was collected for determination of serum rhRLX.
In an additional three rats each administered rhRLX or vehicle, identical experimental procedures as described above were applied, except that the vehicle for RES-701-1 was infused instead of RES-701-1.

[1] = system: infarct and peri-infarct areas of the left ventricle; test: Rat LCAL model: number of venules on H & E sections; format: in vivo
Description: Female Sprague Dawley rats, approximately 12-weeks of age were used. Rats were anesthetized by intraperitoneal (i.p.) injection of up to 1 ml/kg ketamine/medetomidine (6:4). Following exteriorization of the heart, the left coronary artery was ligated near its origin with a silk suture. In sham surgery control animals, the suture was placed superficially into the muscle adjacent to the coronary artery. Post-closure EKG's were monitored for S-T segment elevation in LCAL animals to confirm the outcome of ligation. Immediately following cardiac surgery, a primed mini-osmotic pump containing relaxin or vehicle (20 mM acetate, pH 5.0) was aseptically implanted into a subcutaneous (s.c.) pocket on the dorsal interscapular region. Vehicle or relaxin (0.1 mg/kg/day) was delivered as a continuous s.c. infusion for 7 or 21 days to either sham or LCAL animals. Animals were terminated on day 7 or 21, and the peri-infarct regions anterior to the scar in the left ventricle, or equivalent sites on sham surgery animals were harvested.
The number of venules, arterioles and capillaries in the infarct and peri-infarct areas of the left ventricle were quantified by counting individual vessels on H & E (hematoxylin and eosin) stained sections. Numbers of venules, arterioles and capillaries were determined by counting in the area of the infarct, and in the right and left junction areas between the infarcted free wall and viable myocardium. Quantitation of venules and arterioles were obtained as total number of vessels in the entire area in each of 3 H&E stained transverse sections of the heart, i.e. apical, basal and midway between apical and basal levels. Quantitation was performed by a histopathologist blinded to the treatment groups. Venules comprised the observed increases in numbers of collateral vessels post-infarction. All veins counted in high dry fields were summed to yield vessel number per level. Three levels (apical, basal, and middle) were summed for each animal to yield total number of veins. N=4-5 animals per treatment group. […]

[2] = rhRLX day 5, V, vehicle for RES-701-1

rhRLX: recombinant human relaxin, identical in amino acid sequence to the product of the human H2 gene; A chain of 24, B chain of 29 amino acids
ERPF (female rats; rhRLX day 5, B, baseline): 11220
ERVR (female rats; rhRLX day 5, B, baseline): 6.67
GFR (female rats; rhRLX day 5, B, baseline): 3082
MAP (female rats; rhRLX day 5, B, baseline): 112 ± 7
ERPF (female rats; [2]): 10464
ERVR (female rats; [2]): 6.97
GFR (female rats; [2]): 3112
MAP (female rats; [2]): 115 ± 8
ERPF at baseline compared to vehicle infusion (female rats; rhRLX for 5 days (FIG. 4)): significantly increased
ERVR reduction at baseline compared to vehicle infusion (female rats; rhRLX for 5 days (FIG. 4)): 20-30%
GFR at baseline compared to vehicle infusion (female rats; rhRLX for 5 days (FIG. 4)): significantly increased
MAP at baseline compared to vehicle infusion (female rats; rhRLX for 5 days (FIG. 4)): not significantly affected
number of venules in the infarct region ([1]; day 7, 0.1 mg/kg/day): 163±8
number of venules (vessel number) in the infarct region ([1]; day 21, 0.1 mg/kg/day): 209±13
number of vessels in analogous area of the left ventricle ([1]; sham surgery): did not alter
